Structures can show the parent of a compound that is named as a salt. Bounds are passed on as bounds.

For experiment [1], the system named is promastigote forms of Leishmania donovani. Briefly: In vitro antileishmanial activity in promastigote cultures (MTT), L. donovani. In kind it is cell-based, Leishmania donovani MHOM/IN/80/DD8/LEM 703. Particulars: promastigotes, 72 h incubation, mean ± SEM, n = 3-4 (each run in duplicate), read-out: IC50 (μM) L. donovani MON 703. The method, then: (§1) Determination of in Vitro Antileishmanial Activity in Promastigote Cultures.
(§2) The effect of the phospholipids according to the present invention against the promastigote forms of Leishmania donovani and Leishmania infantum was evaluated using an MTT (3-(4,5-dimethylthiazol-2yl)-2,5-diphenyltetrazolium bromide)-based enzymatic method as a marker of cell viability and was compared with that of the ether phospholipid hexadecylphosphocholine (Miltefosine). Thus, promastigotes of Leishmania infantum MHOM/TN/80/IPT1/LEM 235 and Leishmania donovani MHOM/IN/80/DD8/LEM 703, were grown in RPMI 1640 supplemented with 10% FCS, L. glutamine and antibiotics, at 26° C. All new compounds were dissolved in DMSO to a final concentration of 9.625 mM and linear 3-fold dilutions were done in the culture medium. 25 μL of promastigote culture at 5×10^5 cells/mL were cultured in a 96-well flat-bottom plate (Costar 3696), and incubated with 25 μL of different drug concentrations at 26° C. After 72 h, 10 μL of 5 mg/mL MTT in PBS (SIGMA M2128) were added and incubation was continued for 3 h. The reaction was stopped by the addition of 50 μL of 50% isopropanol, 10% SDS under gentle shacking for 30 min. Absorbance was measured at 550 nm with reference at 620 nm in a TRITURUS microplate reader.

The test system of experiment [2] is promastigote forms of Leishmania infantum. The experiment can be described thus: In vitro antileishmanial activity in promastigote cultures (MTT), L. infantum. In kind it is cell-based, Leishmania infantum MHOM/TN/80/IPT1/LEM 235. Particulars: promastigotes, 72 h incubation, mean ± SEM, n = 3-4 (each run in duplicate), read-out: IC50 (μM) L. infantum MON 235. How it is done:
as §1, §2

Take `CCCCCCCCCCCC=C1CCC(OCCOP(=O)([O-])OCC[N+](C)(C)C)CC1` (stereo not drawn) [Example 1, 1-{2-{[(4-Dodecylidenecyclohexyloxy)ethyloxy]hydroxyphosphinyloxy}ethyl}-N,N,N-trimethylammonium inner salt]: the IC50 in experiment [1] stood at 7.08 ± 1.2 µM; in experiment [2] it was 3.25 ± 0.65 µM.
`CCCCCCCCCCCC=C1CCC(OCCOP(=O)([O-])OCC[N+]2(C)CCCCC2)CC1` (stereo not drawn) [Example 2, 1-{2-{[(4-Dodecylidenecyclohexyloxy)ethyloxy]hydroxyphosphinyloxy}ethyl}-1-methylpiperidinium inner salt]: the IC50 in experiment [1] was 22 ± 3.25 µM; in experiment [2] it was 23.1 ± 3.6 µM.
Take `CCCCCCCCCCCC=C1CCC(OCCOP(=O)([O-])OCC[N+]2(C)CCOCC2)CC1` (stereo not drawn) [Example 3, 1-{2-{[(4-Dodecylidenecyclohexyloxy)ethyloxy]hydroxyphosphinyloxy}ethyl}-1-methylmorpholinium inner salt]: the values for the IC50 in experiment [1] and in experiment [2] were 50.7 ± 3.6 µM and 16.5 ± 1.8 µM, respectively.
On the same counts, the results for `CCCCCCCCCCCCCC=C1CCC(OCCOP(=O)([O-])OCC[N+](C)(C)C)CC1` (stereo not drawn) [Example 4, 1-{2-{[(4-Tetradecylidenecyclohexyloxy)ethyloxy]hydroxyphosphinyloxy}ethyl}-N,N,N-trimethylammonium inner salt] are 3.91 ± 0.21 µM and 5.25 ± 0.45 µM.
With `CCCCCCCCCCCCCC=C1CCC(OCCOP(=O)([O-])OCC[N+]2(C)CCCCC2)CC1` (stereo not drawn) [Example 5, 1-{2-{[(4-Tetradecylidenecyclohexyloxy)ethyloxy]hydroxyphosphinyloxy}ethyl}-1-methylpiperidinium inner salt], the IC50 was 29.7 ± 3.6 µM in experiment [1] and 11.4 ± 2.4 µM in experiment [2].
On the same counts, the results for `CCCCCCCCCCCCCC=C1CCC(OCCOP(=O)([O-])OCC[N+]2(C)CCOCC2)CC1` (stereo not drawn) [Example 6, 1-{2-{[(4-Tetradecylidenecyclohexyloxy)ethyloxy]hydroxyphosphinyloxy}ethyl}-1-methylmorpholinium inner salt] are 38.6 ± 3.2 µM and 15.5 ± 1.8 µM.
On to `CCCCCCCCCCCCCCCC=C1CCC(OCCOP(=O)([O-])OCC[N+](C)(C)C)CC1` (stereo not drawn) [Example 7, 1-{2-{[(4-Hexadecylidenecyclohexyloxy)ethyloxy]hydroxyphosphinyloxy}ethyl}-N,N,N-trimethylammonium inner salt], for which the IC50 came out at 45.1 ± 7.2 µM in experiment [1] and 21.2 ± 2.6 µM in experiment [2].
The like results for `CCCCCCCCCCCCCCCC=C1CCC(OCCOP(=O)([O-])OCC[N+]2(C)CCCCC2)CC1` (stereo not drawn) [Example 8, 1-{2-{[(4-Hexadecylidenecyclohexyloxy)ethyloxy]hydroxyphosphinyloxy}ethyl}-1-methylpiperidinium inner salt] were, in that order, 22 ± 1.99 µM and 6.5 ± 1.7 µM.
On the same counts, the results for `CCCCCCCCCCCCCCCC=C1CCC(OCCOP(=O)([O-])OCC[N+]2(C)CCOCC2)CC1` (stereo not drawn) [Example 9, 1-{2-{[(4-Hexadecylidenecyclohexyloxy)ethyloxy]hydroxyphosphinyloxy}ethyl}-1-methylmorpholinium inner salt] are 16.2 ± 2.29 µM and 3.7 ± 0.71 µM.
Turning to `C[N+](C)(C)CCOP(=O)([O-])OCCCCC=C1CCCCC1` [Example 10, 1-{2-[(5-Cyclohexylidenepentyloxy)hydroxyphosphinyloxy]ethyl}-N,N,N-trimethylammonium inner salt], the IC50 in experiment [1] and in experiment [2] was > 100 µM throughout.
Turning to `C[N+]1(CCOP(=O)([O-])OCCCCC=C2CCCCC2)CCCCC1` [Example 11, 1-{2-[(5-Cyclohexylidenepentyloxy)hydroxyphosphinyloxy]ethyl}-1-methylpiperidinium inner salt], the IC50 in experiment [1] and in experiment [2] was > 100 µM in each case.
For `C[N+]1(CCOP(=O)([O-])OCCCCC=C2CCCCC2)CCOCC1` [Example 12, 1-{2-[(5-Cyclohexylidenepentyloxy)hydroxyphosphinyloxy]ethyl}-1-methylmorpholinium inner salt], the half-inhibitory concentration (IC50) in experiment [1] and in experiment [2] was > 100 µM throughout.
Consider `C[N+]1(CCOP(=O)([O-])OCCCCCCCCCCC=C2CCCCC2)CCCCC1` [Example 14, 1-{2-[(11-Cyclohexylideneundecyloxy)hydroxyphosphinyloxy]ethyl}-1-methylpiperidinium inner salt], for which the IC50 in experiment [1] was 8.7 ± 1 µM; in experiment [2], 47.6 ± 7.33 µM.
The like results for `C[N+]1(CCOP(=O)([O-])OCCCCCCCCCCC=C2CCCCC2)CCOCC1` [Example 15, 1-{2-[(11-Cyclohexylideneundecyloxy)hydroxyphosphinyloxy]ethyl}-1-methylmorpholinium inner salt] were, in that order, 8.25 ± 0.25 µM and 22.8 ± 1.7 µM.
On to `C[N+](C)(C)CCOP(=O)([O-])OCCCCC=C1C2CC3CC(C2)CC1C3` [Example 16, 1-{2-[(5-Adamantylidenepentyloxy)hydroxyphosphinyloxy]ethyl}-N,N,N-trimethylammonium inner salt], for which the figures for the IC50 in experiment [1] and in experiment [2] were 4.99 ± 1.5 µM and > 100 µM, respectively.
For the compound `C[N+]1(CCOP(=O)([O-])OCCCCC=C2C3CC4CC(C3)CC2C4)CCCCC1` [Example 17, 1-{2-[(5-Adamantylidenepentyloxy)hydroxyphosphinyloxy]ethyl}-1-methylpiperidinium inner salt], the half-inhibitory concentration (IC50) in experiment [1] and in experiment [2] was > 100 µM each time.
Consider `C[N+]1(CCOP(=O)([O-])OCCCCC=C2C3CC4CC(C3)CC2C4)CCOCC1` [Example 18, 1-{2-[(5-Adamantylidenepentyloxy)hydroxyphosphinyloxy]ethyl}-1-methylmorpholinium inner salt], for which the IC50 in experiment [1] is 46.9 ± 8.7 µM; in experiment [2], > 100 µM.
Consider `C[N+]1(CCOP(=O)([O-])OCCCCCCCCCCC=C2C3CC4CC(C3)CC2C4)CCCCC1` [Example 20, 1-{2-[(11-Adamantylideneundecyloxy)hydroxyphosphinyloxy]ethyl}-1-methylpiperidinium inner salt], for which the IC50 in experiment [1] is 5.41 ± 1.14 µM; in experiment [2] it was 22.6 ± 3.4 µM.
Regarding `C[N+]1(CCOP(=O)([O-])OCCCCCCCCCCC=C2C3CC4CC(C3)CC2C4)CCOCC1` [Example 21, 1-{2-[(11-Adamantylideneundecyloxy)hydroxyphosphinyloxy]ethyl}-1-methylmorpholinium inner salt], the IC50 in experiment [1] was determined as 5.09 ± 1.86 µM; in experiment [2] it was 6.64 ± 1.2 µM.
The like results for `CCCCCCCCCCCCC1CCC(OCCOP(=O)([O-])OCC[N+](C)(C)C)CC1` (stereo not drawn) [Example 26, 1-{2-{[(4-Dodecylcyclohexyloxy)ethyloxy]hydroxyphosphinyloxy}ethyl}-N,N,N-trimethylammonium inner salt] were, in that order, 9.49 ± 1.4 µM and 5.65 ± 1.93 µM.
On the same counts, the results for `CCCCCCCCCCCCCCC1CCC(OCCOP(=O)([O-])OCC[N+](C)(C)C)CC1` (stereo not drawn) [Example 27, 1-{2-{[(4-Tetradecylcyclohexyloxy)ethyloxy]hydroxyphosphinyloxy}ethyl}-N,N,N-trimethylammonium inner salt] are 23.7 ± 4.4 µM and 23.3 ± 3.5 µM.
Regarding `C[N+](C)(C)CCOP(=O)([O-])OCCCCCCCCCCCC1CCCCC1` [Example 28, 1-{2-[(11-Cyclohexylundecyloxy)hydroxyphosphinyloxy]ethyl}-N,N,N-trimethylammonium inner salt], the IC50 in experiment [1] came to 10.3 ± 1.3 µM; in experiment [2], 8.4 ± 0.8 µM.
For the compound `C[N+](C)(C)CCOP(=O)([O-])OCCCCCC12CC3CC(CC(C3)C1)C2` [Example 29, 1-{2-[(5-Adamantylpentyloxy)hydroxyphosphinyloxy]ethyl}-N,N,N-trimethylammonium inner salt], the IC50 in experiment [1] is 4.02 ± 2.3 µM; in experiment [2], > 100 µM.
In the case of `C[N+](C)(C)CCOP(=O)([O-])OCCCCCCCCCCCC12CC3CC(CC(C3)C1)C2` [Example 30, 1-{2-[(11-Adamantylundecyloxy)hydroxyphosphinyloxy]ethyl}-N,N,N-trimethylammonium inner salt], the IC50 in experiment [1] is 2.88 ± 0.72 µM; in experiment [2], 5.97 ± 1.06 µM.

These data come from patent publication US8097752B2, “Antiprotozoal ring-substituted phospholipids” (priority 2002, dated 2012).
